The assay addresses NLRP3 (Homo sapiens, UniProt Q96P20). In words: THP-1 cells pyroptosis assay. The conditions noted are these: LPS 1.0 μg/ml, nigericin 5 μM, resazurin readout, 10 μM top dose (Example 2: top dose of 30 μM). Also noted: Seed THP-1 cells (25,000 cells/well) containing 1.0 μg/ml LPS; host or cells: THP-1. The class given is cell-based. Summed up:
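THP-1 cells (25,000/well) primed with 1 μg/ml LPS in serum-free RPMI, treated with compound (8-point dilution, 10 μM top unless stated; 0.1% DMSO) 3 h at 37°C, then nigericin 5 μM 1 h. Viability read by resazurin (100 μM, 1-2 h) fluorescence; IC50 from 4-parameter fit.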
On the technique in general: The colour change of resazurin is a common sign of viable cells or microbes.

These results are taken from patent US20210261512A1, “NOVEL COMPOUNDS” (INFLAZOME LIMITED, priority 2018, published 2021).

NLRP3, sequence (Q96P20 whole entry): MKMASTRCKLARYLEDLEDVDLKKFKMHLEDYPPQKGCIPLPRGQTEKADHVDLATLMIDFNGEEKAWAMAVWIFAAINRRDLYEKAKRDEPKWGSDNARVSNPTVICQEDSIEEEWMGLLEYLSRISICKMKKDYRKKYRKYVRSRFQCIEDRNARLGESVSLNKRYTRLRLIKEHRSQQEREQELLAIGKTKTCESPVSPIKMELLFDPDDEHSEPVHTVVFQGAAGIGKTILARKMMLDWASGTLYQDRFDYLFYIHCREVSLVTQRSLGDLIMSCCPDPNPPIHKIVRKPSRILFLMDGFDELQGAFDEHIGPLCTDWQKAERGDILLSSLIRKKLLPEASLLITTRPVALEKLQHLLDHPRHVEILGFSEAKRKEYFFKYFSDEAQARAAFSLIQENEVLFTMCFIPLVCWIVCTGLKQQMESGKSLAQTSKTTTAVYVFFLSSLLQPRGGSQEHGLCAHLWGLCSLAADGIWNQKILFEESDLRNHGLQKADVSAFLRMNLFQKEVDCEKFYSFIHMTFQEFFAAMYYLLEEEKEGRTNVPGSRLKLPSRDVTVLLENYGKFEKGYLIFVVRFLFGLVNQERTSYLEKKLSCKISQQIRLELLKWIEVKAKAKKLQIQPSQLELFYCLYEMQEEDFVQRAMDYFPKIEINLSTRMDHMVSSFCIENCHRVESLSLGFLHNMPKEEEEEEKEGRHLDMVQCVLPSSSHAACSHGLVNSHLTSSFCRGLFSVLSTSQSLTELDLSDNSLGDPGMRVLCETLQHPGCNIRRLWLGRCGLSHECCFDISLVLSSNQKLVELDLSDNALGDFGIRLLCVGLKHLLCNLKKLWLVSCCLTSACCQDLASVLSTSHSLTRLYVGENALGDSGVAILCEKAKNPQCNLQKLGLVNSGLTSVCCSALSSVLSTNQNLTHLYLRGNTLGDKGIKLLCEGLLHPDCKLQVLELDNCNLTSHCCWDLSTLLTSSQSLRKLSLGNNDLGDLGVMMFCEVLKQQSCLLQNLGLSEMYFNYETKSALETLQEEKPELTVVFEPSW

What is called IC50 is the concentration that gives 50% inhibition. Low readings indicate higher potency, high ones lower potency. With `CC(C)(O)c1cccc(S(=O)(=O)c2nnc(Nc3c4c(cc5c3CCC5)CCC4)[nH]2)c1` [Example 172, 2-(3-((5-((1,2,3,5,6,7-hexahydro-s-indacen-4-yl)amino)-4H-1,2,4-triazol-3-yl)sulfonyl)phenyl)propan-2-ol], the 50% inhibitory concentration (IC50) was ≤ 1 µM.

For the molecule `COc1ccccc1S(=O)(=O)c1nnc(Nc2c3c(cc4c2CCC4)CCC3)[nH]1` [Example 173, N-(1,2,3,5,6,7-hexahydro-s-indacen-4-yl)-5-((2-methoxyphenyl)sulfonyl)-4H-1,2,4-triazol-3-amine], the IC50 is ≤ 1 µM.

As for `Cc1cccc(S(=O)(=O)c2nnc(Nc3c4c(cc5c3CCC5)CCC4)[nH]2)c1` [Example 174, N-(1,2,3,5,6,7-hexahydro-s-indacen-4-yl)-5-(m-tolylsulfonyl)-4H-1,2,4-triazol-3-amine], the 50% inhibitory concentration (IC50) is ≤ 5 µM.

Consider `COc1cccc(S(=O)(=O)c2nnc(Nc3c4c(cc5c3CCC5)CCC4)[nH]2)c1` [Example 175, N-(1,2,3,5,6,7-hexahydro-s-indacen-4-yl)-5-((3-methoxyphenyl)sulfonyl)-4H-1,2,4-triazol-3-amine], for which the IC50 is ≤ 5 µM.

Take `O=S(=O)(c1cccnc1)c1nnc(Nc2c3c(cc4c2CCC4)CCC3)[nH]1` [Example 177, N-(1,2,3,5,6,7-hexahydro-s-indacen-4-yl)-5-(pyridin-3-ylsulfonyl)-4H-1,2,4-triazol-3-amine]: the half-maximal inhibitory concentration (IC50) was ≤ 5 µM.

For the molecule `O=S(=O)(c1cccc(F)c1)c1nnc(Nc2c3c(cc4c2CCC4)CCC3)[nH]1` [Example 178, 5-((3-fluorophenyl)sulfonyl)-N-(1,2,3,5,6,7-hexahydro-s-indacen-4-yl)-4H-1,2,4-triazol-3-amine], the IC50 is ≤ 5 µM.

As for `CN1Cc2ccc(S(=O)(=O)c3n[nH]c(Nc4c5c(cc6c4CCC6)CCC5)n3)cc2C1=O` [Example 180, 6-((5-((1,2,3,5,6,7-hexahydro-s-indacen-4-yl)amino)-1H-1,2,4-triazol-3-yl)sulfonyl)-2-methylisoindolin-1-one], the IC50 is ≤ 5 µM.

As to `O=S(=O)(c1ccc(F)cc1)c1nnc(Nc2c3c(cc4c2CCC4)CCC3)[nH]1` [Example 181, 5-((4-fluorophenyl)sulfonyl)-N-(1,2,3,5,6,7-hexahydro-s-indacen-4-yl)-4H-1,2,4-triazol-3-amine], the IC50 was ≤ 5 µM.

For the molecule `Cc1ccc(S(=O)(=O)c2nnc(Nc3c4c(cc5c3CCC5)CCC4)[nH]2)cc1` [Example 182, N-(1,2,3,5,6,7-hexahydro-s-indacen-4-yl)-5-tosyl-4H-1,2,4-triazol-3-amine], the half-inhibitory concentration (IC50) is ≤ 5 µM.

Regarding `COc1ccc(S(=O)(=O)c2nnc(Nc3c4c(cc5c3CCC5)CCC4)[nH]2)cc1` [Example 183, N-(1,2,3,5,6,7-hexahydro-s-indacen-4-yl)-5-((4-methoxyphenyl)sulfonyl)-4H-1,2,4-triazol-3-amine], the half-inhibitory concentration (IC50) is ≤ 5 µM.

Regarding `N#Cc1ccc(S(=O)(=O)c2nnc(Nc3c4c(cc5c3CCC5)CCC4)[nH]2)cc1` [Example 184, 4-((5-((1,2,3,5,6,7-hexahydro-s-indacen-4-yl)amino)-4H-1,2,4-triazol-3-yl)sulfonyl)benzonitrile], the IC50 is ≤ 5 µM.

For the molecule `N#Cc1ccccc1S(=O)(=O)c1nnc(Nc2c3c(cc4c2CCC4)CCC3)[nH]1` [Example 185, 2-((5-((1,2,3,5,6,7-hexahydro-s-indacen-4-yl)amino)-4H-1,2,4-triazol-3-yl)sulfonyl)benzonitrile], the IC50 is ≤ 0.5 µM.

Regarding `CC(C)(O)c1ccc(S(=O)(=O)c2nnc(Nc3c4c(cc5c3CCC5)CCC4)[nH]2)cc1` [Example 186, 2-(4-((5-((1,2,3,5,6,7-hexahydro-s-indacen-4-yl)amino)-4H-1,2,4-triazol-3-yl)sulfonyl)phenyl) propan-2-01], the IC50 was ≤ 0.5 µM.

As to `Cc1ccccc1S(=O)(=O)c1nnc(Nc2c3c(cc4c2CCC4)CCC3)[nH]1` [Example 187, N-(1,2,3,5,6,7-hexahydro-s-indacen-4-yl)-5-(o-tolylsulfonyl)-4H-1,2,4-triazol-3-amine], the IC50 is ≤ 1 µM.
